Columns and labels:
[1] = tested on: G9 neurospheres (glioma stem-like cells); assay: G9 cytotoxicity assay; type: cell-based
[2] = tested on: G30 neurospheres (glioma stem-like cells, luciferase-transduced); assay: G30 cytotoxicity assay; type: cell-based; details: read-out: IC50 in G30 GSCs, 72 h treatment, CellTiter-Glo

Row | Structure (SMILES) | IC50 ([1]; read-out: IC50 against G9 cells, 80 h treatment, CellTiter-Glo) | IC50 [2] | IC50 against G9 cells ([1]; 80 h treatment, CellTiter-Glo)
1 | N.N.[Cl][Pt][Cl] [cisplatin] | 4 µM | 2 µM | 
2 | CCCCNC(=O)[O][Pt]([NH2])([NH2])([Cl])([Cl])[O]C(=O)CCC(=O)O [prodrug 4, cis,cis,trans-[Pt(NH3)2Cl2(O2CCH2CH2COOH)(n-butyl Carba-mate)]] |  |  | not active
